# “And” between values parts separate entries of the source, which are not always exact repeats. Equal entries are not always repeated.
# Tests used:
# Type in all cases: functional, Homo sapiens
# Set-up in all cases: dose or concentration left out as unconfirmed
# Colon cancer organoid [1] = assay: Image-based profiling of donated chemical probes and chemogenomic kinase set in O21 CRC organoid. Image analysis is performed on the sum area metric, and the data were normalized to the DMSO control. After imaging the organoid viability is measured using the OneGloEX Luciferase Assay System. The normalized viability data and sum area are reported.
# Colon cancer organoid [2] = assay: Image-based profiling of donated chemical probes and chemogenomic kinase set in O09 CRC organoid. Image analysis is performed on the sum area metric, and the data were normalized to the DMSO control. After imaging the organoid viability is measured using the OneGloEX Luciferase Assay System. The normalized viability data and sum area are reported.
# Colon cancer organoid [3] = assay: Image-based profiling of donated chemical probes and chemogenomic kinase set in O06 CRC organoid. Image analysis is performed on the sum area metric, and the data were normalized to the DMSO control. After imaging the organoid viability is measured using the OneGloEX Luciferase Assay System. The normalized viability data and sum area are reported.
SMILES,Cell Viability (Colon cancer organoid [1]; Replication number 1),Cell Viability (Colon cancer organoid [1]; Replication number 2),Cell Viability (Colon cancer organoid [2]; Replication number 1),Cell Viability (Colon cancer organoid [2]; Replication number 2),Cell Viability (Colon cancer organoid [3]; Replication number 1),Cell Viability (Colon cancer organoid [3]; Replication number 2)
Clc1cccc(-c2nnnn2Cc2cccnc2)c1Cl,103.002% and 95.4722%,106.874% and 109.184%,192.597% and 128.776%,120.929% and 99.0142%,110.934% and 130.913%,90.04% and 81.9662%
O=C(/C=C/N1C[C@H]2C[C@@H]1CN2c1ccccn1)c1ccccc1O,136.807% and 131.679%,93.5448% and 99.3437%,108.639% and 102.241%,93.5613% and 97.7827%,142.277% and 136.268%,180.564% and 107.78%
CC(=O)Nc1c(C(C)=O)c(=O)n(C)c2nc(-c3ccc(Cl)cc3Cl)c(-c3ccc(Cl)cc3)cc12 [NAPHTHYRIDINONE],94.8536% and 101.294%,91.9114% and 85.7143%,117.091% and 130.21%,64.3844% and 79.7371%,123.545% and 117.564%,103.77% and 94.7587%
Cc1nc(NC(=O)N2CCC[C@H]2C(N)=O)sc1-c1ccnc(C(C)(C)C(F)(F)F)c1 [ALPELISIB],82.706% and 92.5436%,73.0527% and 85.7863%,78.5129% and 75.0506%,83.7581% and 44.8119%,55.6533% and 63.4302%,57.1927% and 78.1491%
CC[C@@H]1CN(C(=O)NCC(F)(F)F)C[C@@H]1c1cnc2cnc3[nH]ccc3n12 [UPADACITINIB],100.634% and 104.808%,99.9708% and 92.6952%,147.971% and 117.189%,96.4317% and 92.8632%,103.03% and 85.909%,77.8559% and 94.8072%
Cc1sc2c(c1C)C(c1ccc(Cl)cc1)=N[C@@H](CC(=O)NCCCCCCCCNC(=O)COc1cccc3c1C(=O)N(C1CCC(=O)NC1=O)C3=O)c1nnc(C)n1-2 (stereo partly specified),41.9399% and 81.7113%,36.361% and 51.9272%,79.9563% and 42.1947%,86.5792% and 48.4637%,4.9545% and 11.7664%,6.03% and 10.6824%
CN(C)C(=O)c1sc2nc(N3CCC(S(C)(=O)=O)CC3)cc(C(F)(F)F)c2c1N [BI-5026],97.3% and 81.8479%,110.845% and 100.952%,136.068% and 99.7874%,102.802% and 111.221%,118.242% and 106.64%,81.5646% and 70.3988%
COc1cc(-c2cn([C@H]3CCc4c(F)cccc4N(CC(F)(F)F)C3=O)nn2)ccc1-n1cnc(C)c1,110.846% and 137.969%,98.2534% and 104.592%,81.2479% and 97.2392%,40.0152% and 77.6926%,98.6748% and 98.829%,105.811% and 104.708%
C[C@@H]1CCc2ncc(F)cc2[C@H]2CCCN2c2ccn3ncc(c3n2)C(=O)N1 [SELITRECTINIB],119.212% and 110.383%,103.521% and 97.8769%,111.995% and 102.727%,91.1731% and 73.4267%,134.929% and 121.742%,93.5037% and 107.969%
C[C@H](c1ccc(F)cc1)N(Cc1cccc(C(=O)O)c1)C(=O)c1cnc2ccccc2c1 [PF-05105679],102.98% and 107.115%,83.9126% and 93.8775%,96.3652% and 120.892%,63.8781% and 75.356%,106.225% and 110.304%,129.169% and 147.587%
CCOc1cn(-c2ccc(F)cc2C)nc1C(=O)Nc1ccc(Oc2ccnc3cc(OC)c(OC)cc23)c(F)c1,103.157% and 102.021% and 78.4654% and 79.1638%,106.966% and 96.7254% and 100.887% and 106.513%,106.171% and 88.0162% and 65.7353% and 75.3%,96.6425% [middle of 4 runs],102.988% and 123.299% and 120.024% and 109.723%,127.856% and 122.776% and 99.2168% and 90.0771%
C[C@H]1CC(=O)Nc2cc(C(=O)NCCC3CC3)ccc2N1C(=O)N1CC2CC2C1 (stereo partly specified),104.914% and 116.982%,77.8753% and 111.158%,82.587% and 82.5348%,120.178% and 115.743%,181.689% and 143.275%,157.26% and 132.873%
COc1ccc(CCc2nc3cc(-c4c(C)noc4C)ccc3n2C[C@H](C)N2CCOCC2)cc1Cl,102.391% and 140.496%,95.0347% and 135.859%,60.3888% and 74.4204%,92.6649% and 71.2702%,175.76% and 138.685%,131.173% and 129.766%
NS(=O)(=O)c1cc(NC(=O)Cc2ccccc2)ccc1Oc1cccc(Cl)c1 [BAY-1797],97.444% and 106.533%,100.538% and 94.898%,109.148% and 118.264%,102.589% and 110.989%,118.794% and 140.984%,77.9849% and 83.6245%
C=CC(=O)Nc1ccc2[nH]c(=O)n(C3CCN(C(=O)c4ccc(-c5nc6cc[nH]c(=O)c6cc5-c5ccccc5)cc4)CC3)c2c1,115.206% and 106.481%,111.195% and 142.785%,86.8441% and 100.234%,90.0124% and 91.2435%,120.248% and 109.056%,107.251% and 98.7147%
CN(C)CCCOc1ccc(-c2cc(NCCCn3cccn3)nc(S(C)(=O)=O)n2)cc1,93.735% and 87.002%,96.544% and 91.8258%,107.413% and 76.7388%,121.884% and 89.5154%,164.335% and 134.819%,201.31% and 140.998%
CN(C)c1ncnc(-c2ccc3nc(Nc4cc(CN5CCN(C(=O)CC(F)(F)F)CC5)ccn4)[nH]c3c2)c1Cl [BAY-440],107.586% and 105.951%,93.8566% and 87.7551%,134.702% and 130.21%,215.997% and 118.583%,91.3612% and 98.3607%,93.5115% and 120.107%
Cc1ccc(-c2cnc([C@@]3(O)CC[C@H](C(=O)O)C(C)(C)C3)s2)cc1Nc1cccc(C(F)(F)F)n1 [MRL-SYKi-NC],112.056% and 96.0543%,96.6815% and 86.7347%,109.363% and 85.7712%,161.475% and 115.078%,90.9085% and 96.9555%,94.2486% and 84.0983%
C[C@@H]1CN(c2cc(-c3nn(C)c4ccc(OC5(C)CC5)cc34)ncn2)C[C@H](C)O1 [MLi-2-NC],92.869% and 94.89%,95.8024% and 129.082%,104.615% and 76.2145%,63.1554% and 89.3757%,109.32% and 103.981%,134.588% and 115.132%
Cc1c(Nc2ccc(S(=O)(=O)N3CCN(C)CC3)cc2F)nc2ccc(Nc3cnn(C4CC4)c3)cn2c1=O,116.907% and 92.8805%,82.2867% and 96.1217%,89.3145% and 89.49%,245.21% and 122.015%,183.611% and 128.295%,165.181% and 157.488%
Cn1cc(C2=C(c3cn(C4CCN(Cc5ccccn5)CC4)c4ccccc34)C(=O)NC2=O)c2ccccc21 [ENZASTAURIN],107.446% and 117.631%,96.9547% and 121.483%,88.965% and 63.5811%,82.186% and 57.4996%,30.0951% and 84.3511%,45.1765% and 67.455%
